Experimental data from patent US20170327556A1, “CARTILAGE-BINDING FUSION PROTEINS” (Merrimack Pharmaceuticals, Inc., priority 2013, published 2017).

Key:
[1] = system: BXPC-3 cells; assay: Stimulation of AKT phosphorylation in BXPC-3 cells (pAKT ELISA); assay type: cell-based; conditions: 10 min stimulation, doses in M (Table 4), 6x-Histidine-tagged fusion proteins
Method: (§1) Fusion proteins comprising IGF-1 and a cartilage matrix binding domain were prepared as described above. Six fusion proteins were prepared: GF-Fus1 (6x-Histidine-tagged), GF-Fus2(6x-Histidine-tagged), GF-Fus3 (6x-Histidine-tagged), GF-Fus4 (6x-Histidine-tagged), GF-Fus5 (6x-Histidine-tagged), and GF-Fus6 (6x-Histidine-tagged). In order to ensure that the growth factor portion of the fusion protein was active in the fusion proteins, each construct was tested for its ability to stimulate AKT phosphorylation. Wild-type IGF-1 (wtIGF) was included as a control. Bovine chondrocytes were stimulated with a range of doses of each fusion protein, and pAKT levels were measured by ELISA.
For ligand stimulation, chondrocytes were seeded at 200,000 cells/well into 96-well tissue culture plates with 100 μL of chondrocyte culture medium with fetal bovine serum (10% v/v, Life Technologies Cat#16140071). Alternatively, BXPC-3 cells, a pancreatic adenocarcinoma cell line (ATCC® CRL-1687™), were seeded at 30,000 cells/well into 96-well tissue culture plates with 100 μL of BXPC-3 medium (RPMI-1640, e.g., ATCC® 30-2001™), with L-glutamine (2 mM), Penicillin-Streptomycin (1×, Gibco® 15140-122), Fetal Bovine Serum (10% v/v, Life Technologies Cat#16140071)). After 24 hrs, both chondrocytes and BXPC-3 cells were rinsed with 100 μL of sterile PBS (pH=7.4) per well and 100 μl of chondrocyte or BXPC-3 culture medium (without fetal bovine serum) was added to the corresponding cell type. After an additional 24 hrs, cells were stimulated with the doses of fusion proteins set forth in Table 4 by adding 25 μL of fusion protein at a concentration 5 times greater than the concentration listed in Table 4 to the 100 μL of medium already in the wells. After 10 min of stimulation, fusion protein was removed and wells were rinsed in ice cold PBS (pH=7.4). 50 μL/well of cell extraction buffer (Invitrogen cat# FNN0011) was added and incubated with shaking at 4° C. for 30 minutes. Lysates were then frozen at −80° C.
Corning high binding 384 well black ELISA plates (cat#3577) are coated with 30 μL of capture antibody at 4 μg/mL (anti-AKT1 total capture antibody, Upstate, Cat#05-591MG) in PBS (pH=7.4) for 16 hours at room temperature, washed and blocked with […] 2% bovine serum albumin (Sigma Cat# A3294) in PBS (pH=7.4) for 1 hour at room temperature. 20 μL of thawed lysates or recombinant pAKT standards (ten 2-fold serial dilutions of 400 ng recombinant human AKT, active (Upstate, Cat#14-276) in PBS (pH=7.4) containing 50% v/v Cell extraction buffer (Invitrogen Cat#FNN0011), 1% bovine serum albumin (Sigma Cat# A3294), 0.05% Tween20) are applied to the coated plate and incubated for 2 hours at room temperature. After washing 3 times with 100 μL/well of 0.05% Tween-20/PBS (pH=7.4) bound phospho-AKT is detected using Phospho-AKT (Ser473)(587F11)-biotinylated (Cell Signaling, Cat#5102), streptavidin-HRP (R&D Systems Cat# DY998, Part #890803), SuperSignal ELISA PicoChemiluminescent Substrate (Thermo Scientific Cat#37069), using a luminometer to detect light emissions at 425 nm.

[2] = system: AKT phosphorylation in bovine chondrocytes; assay: Stimulation of AKT phosphorylation in primary bovine chondrocytes (pAKT ELISA); assay type: cell-based; conditions: 10 min stimulation, doses in M (Table 4), 6x-Histidine-tagged fusion proteins
Method: as §1
Bovine chondrocytes are isolated from the femoral chondyles of 2-4 week old bovine calves. Knee joints are mounted by removing all tissue surrounding the femur, removing the femoral head with a bone saw or hack saw, and clamping in a tissue vice. Joints are aseptically opened, removing the patella, tibia and fibula. Using a scalpel, cartilage is sliced off the femoral chondyles and placed in sterile PBS (pH=7.4) containing penicillin-streptomycin (1×, Gibco 15140-122). PBS is subsequently removed and pronase solution (50 mL per 5 g of tissue), consisting of high glucose DMEM (Life Technologies Cat#11965-092), fetal bovine serum (10% v/v, Life Technologies Cat#16140071), HEPES (100 mM, Gibco 15630-080), non-essential amino acids (1×, Sigma M7145), penicillin-streptomycin (1×, Gibco 15140-122), proline (400 μM, Sigma P5607-256), Protease Type XIV (2 mg/mL, Sigma Cat# P5147), is added for 1 hour with stirring. After rinsing twice with sterile PBS (pH=7.4), collagenase solution (50 mL per 5 g of tissue), consisting of high glucose DMEM (Life Technologies Cat#11965-092), fetal bovine serum (10% v/v, Life Technologies Cat#16140071), HEPES (100 mM, Gibco 15630-080), NEAA(1×, Sigma M7145), Penicillin-Streptomycin (1×, Gibco 15140-122), 0.25 mg/mL Collagenase P (Roche Cat#11 249 002 001), is added for 18 hours with stirring. Cell are strained, washed, and resuspended in chondrocyte culture medium (low glucose DMEM (1× Gibco 11885-084), Penicillin-Streptomycin (1×, Gibco 15140-122), non-essential amino acids (1×, Sigma M7145), and HEPES (100 mM, Gibco 15630-080)) with fetal bovine serum (10% v/v, Life Technologies Cat#16140071).
For ligand stimulation, chondrocytes were seeded at 200,000 cells/well into 96-well tissue culture plates with 100 μL of chondrocyte culture medium with fetal bovine serum (10% v/v, Life Technologies Cat#16140071). […]

| Substance | logEC50 Mean [1] | logEC50 Mean [2] |
| --- | --- | --- |
| GF-Fus6: IGF-1(LR3) fused to CNA344 CB domain | −8.832 |  |
| GF-Fus3: C-terminal fusion IGF-1(LR3)-PRELP heparin binding domain | −9.231 | −9.175 |
| GF-Fus1: IGF-1 variant polypeptide Long [R^3]-IGF-1, no fused binding domain; used 6x-Histidine-tagged as control [reference compound] | −8.605 | −9.227 |
| wtIGF: Wild-type IGF-1 (R&D systems 291-G1), control [reference compound] | −9.081 | −9.071 |
| GF-Fus5: IGF-1(LR3) fused to CNA35 CB domain | −8.969 |  |
